Starred links: 1 amine or outer side, 2 acyl side, 3 side chain; linkers in the order of their positions; H or OH if unused. Positions of bridges follow the written chain, without caps; N, C: chain ends. Residues, ends and D or L forms follow the SMILES beside them. No end group written: not given here. Phenylene(1,4-NHCOCH2)2 = O=C(C[*:1])Nc1ccc(NC(=O)C[*:2])cc1; X1 = O=C(C[*:1])O[C@@H]1C=C[C@H](OC(=O)C[*:2])C1; X9 = O=C(C[*:1])O[C@@H]1CCC[C@H](OC(=O)C[*:2])C1; X8 = COc1cc(NC(=O)C[*:2])c(OC)cc1NC(=O)C[*:1]; X3 = O=C(C[*:1])Nc1ccccc1NC(=O)C[*:2]
Columns and labels:
full-length β-Catenin = target: T1, full-length β-Catenin (Homo sapiens, UniProt P35222); experiment: Competition fluorescence polarization assay for binding to beta-catenin (displacement of FITC labeled Axin peptide probe); details: 15 nM full-length β-Catenin, 20 nM FITC labeled Axin peptide probe, 3-fold serial dilution from 5 μM; read-out: bCat EC50
T1 construct: Probe solution (15 nM full-length β-Catenin, 20 nM FITC labeled Axin peptide in buffer)
T1 sequence (P35222 1-781): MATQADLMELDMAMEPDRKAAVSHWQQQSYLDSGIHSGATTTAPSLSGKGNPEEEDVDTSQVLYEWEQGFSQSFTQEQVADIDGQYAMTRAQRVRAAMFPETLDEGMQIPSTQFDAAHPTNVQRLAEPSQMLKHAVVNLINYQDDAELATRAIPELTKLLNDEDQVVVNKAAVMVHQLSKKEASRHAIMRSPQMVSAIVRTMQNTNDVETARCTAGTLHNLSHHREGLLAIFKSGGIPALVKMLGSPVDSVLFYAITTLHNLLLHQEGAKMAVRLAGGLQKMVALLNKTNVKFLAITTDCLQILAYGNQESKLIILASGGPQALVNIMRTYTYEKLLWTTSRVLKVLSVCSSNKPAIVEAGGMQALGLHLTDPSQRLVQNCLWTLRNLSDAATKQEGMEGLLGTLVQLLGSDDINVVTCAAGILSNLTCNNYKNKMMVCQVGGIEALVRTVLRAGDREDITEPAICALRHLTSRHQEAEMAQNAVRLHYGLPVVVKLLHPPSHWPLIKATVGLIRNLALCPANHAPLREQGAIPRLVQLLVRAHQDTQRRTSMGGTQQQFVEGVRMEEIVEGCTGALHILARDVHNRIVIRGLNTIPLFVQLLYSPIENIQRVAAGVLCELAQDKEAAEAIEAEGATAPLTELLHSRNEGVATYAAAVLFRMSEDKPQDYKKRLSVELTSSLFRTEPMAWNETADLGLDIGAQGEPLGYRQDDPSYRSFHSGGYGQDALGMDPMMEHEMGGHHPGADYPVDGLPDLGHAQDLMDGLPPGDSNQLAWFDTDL
Method: Peptide assessment: In one assay for assessing binding to beta-catenin, peptide solutions were prepared in buffer (50 mM Tris pH 8.0, 250 mM NaCl, 2% glycerol, 0.5 mM EDTA, 0.02% w/v sodium azide) using a 3-fold serial dilution from 5 μM. Probe solution (15 nM full-length β-Catenin, 20 nM FITC labeled Axin peptide in buffer ([FAM-PEG1-RRWPR(S5)ILD(S5)HVRRVWR (SEQ ID NO: 44)] where the two S5 residues are stapled, as reported in: Proc Natl Acad Sci USA. 2012 Oct. 30; 109(44):17942-7)) was prepared and incubated for 5 minutes, then 40 μL per well plated in a black polystyrene 384-well plate (Corning). Equal volume of the titrated peptide was added to the plate and incubated protected from light for 15 minutes prior to read. Reads were performed on a Spectramax M5 (Molecular Devices) in duplicate.

[1] = Measurement of LogD (CHI logD by HPLC); assay type: physicochemical; details: CHI log D, 50 mM ammonium acetate pH 7.4 / acetonitrile gradient, C-18 column, 25° C.
Method: Measurement of LogD: LogD values were measured on a Agilent 1260 HPLC with UV detector (254, 220 nm), using a Gemini NX C-18 50×3 mm column (Phenomenex) with a 6-minute 0-100% mobile phase gradient of A) 50 mM ammonium acetate pH 7.4 and B) Acetonitrile at 25° C. with a flow rate of 1 mL/min and injection volume of 3-5 uL.

Row | EC50 (full-length β-Catenin) | chromatographic logD [1] | Compound
1 | > 10 µM | 0.53 | GPAKPEAPGEDASPDELIHYYNSLDEYLYEVA-NH2 (C-terminus assumed) [Compound 16]
2 | > 10 µM | 0.52 | GPAKPEAPGEDASPDELMHYYTSLEDYLDHVP-NH2 (C-terminus assumed) [Compound 18]
3 | > 10 µM | 0.87 | GPAKPEAPGEDASPQELHDYYEILDNYLDWVA-NH2 (C-terminus assumed) [Compound 26]
4 | > 10 µM | 0.75 | CC(C)C[C@@H]1NC(=O)[C@H](C)NC(=O)[C@H](C)NC(=O)[C@H](Cc2c[nH]c3ccccc23)NC(=O)[C@H](CCC(=O)O)NC(=O)[C@@H](NC(=O)[C@H](CCCNC(=N)N)NC(=O)[C@H](Cc2c[nH]cn2)NC(=O)[C@@H](NC(=O)[C@H](C)NC(=O)[C@@H]2CCCN2C(=O)[C@H](CC(=O)O)NC(=O)[C@H](C)N)[C@@H](C)O)CSCC(=O)O[C@@H]2C=C[C@@H](C2)OC(=O)CSC[C@@H](C(=O)N[C@@H](CCC(=O)O)C(=O)N[C@@H](CC(C)C)C(=O)N[C@H](C(N)=O)C(C)C)NC(=O)[C@H](Cc2c[nH]cn2)NC1=O [Compound 39]
5 | > 10 µM | 0.82 | GPAKPEAPGEDASPDELHHYYQNLETYLYRVA-NH2 (C-terminus assumed) [Compound 15]
6 | > 10 µM | 0.8 | CC(C)C[C@@H]1NC(=O)[C@H](C)NC(=O)[C@H](C)NC(=O)[C@H](Cc2c[nH]c3ccccc23)NC(=O)[C@H](CCC(=O)O)NC(=O)[C@@H](NC(=O)[C@H](CCCNC(=N)N)NC(=O)[C@H](Cc2c[nH]cn2)NC(=O)[C@@H](NC(=O)[C@H](C)NC(=O)[C@@H]2CCCN2C(=O)[C@H](CC(=O)O)NC(=O)[C@H](C)N)[C@@H](C)O)CSCC(=O)O[C@@H]2CC[C@@H](C2)OC(=O)CSC[C@@H](C(=O)N[C@@H](CCC(=O)O)C(=O)N[C@@H](CC(C)C)C(=O)N[C@H](C(N)=O)C(C)C)NC(=O)[C@H](Cc2c[nH]cn2)NC1=O [Compound 38]
7 |  | 0.39 | CC[C@H](C)[C@@H]1NC(=O)[C@H](CC(C)C)NC(=O)[C@H](C)NC(=O)[C@H](C)NC(=O)[C@H](Cc2c[nH]cn2)NC(=O)[C@H](CCC(=O)O)NC(=O)[C@@H](NC(=O)[C@H](CCC(=O)O)NC(=O)[C@H](Cc2c[nH]c3ccccc23)NC(=O)[C@H](CC(=O)O)NC(=O)[C@H](C)NC(=O)[C@@H]2CCCN2C(=O)[C@H](CC(=O)O)NC(=O)[C@H](C)N)CSCC(=O)Nc2ccc(cc2)NC(=O)CSC[C@@H](C(=O)N[C@@H](CC(=O)O)C(=O)N[C@@H](C)C(=O)N[C@@H](CCSC)C(N)=O)NC1=O [Compound 12] (H-ADPADWECEHAALICDAM-NH2; linker 8-15 via Phenylene(1,4-NHCOCH2)2; N-terminus and C-terminus assumed)
8 |  | 0.57 | CC(C)C[C@@H]1NC(=O)[C@H](C)NC(=O)[C@H](C)NC(=O)[C@H](Cc2c[nH]c3ccccc23)NC(=O)[C@H](CCC(=O)O)NC(=O)[C@@H](NC(=O)[C@H](CCCNC(=N)N)NC(=O)[C@H](Cc2c[nH]cn2)NC(=O)[C@@H](NC(=O)[C@H](C)NC(=O)[C@@H]2CCCN2C(=O)[C@H](CC(=O)O)NC(=O)[C@H](C)N)[C@@H](C)O)CSCC(=O)Nc2ccc(cc2)NC(=O)CSC[C@@H](C(=O)N[C@@H](CCC(=O)O)C(=O)N[C@@H](CC(C)C)C(=O)N[C@H](C(N)=O)C(C)C)NC(=O)[C@H](Cc2c[nH]cn2)NC1=O [Compound 1]

The remaining lines, values behind:

Row | Compound | EC50 (full-length β-Catenin) | chromatographic logD [1]
9 | GPAKPEAPGEDASPDELYHYYTHLEEYLYDVA-NH2 (C-terminus assumed) [Compound 17] | > 10 µM | 0.64
10 | GPAKPEAPGEDASPDELIFYYDHLSRYLTDVA-NH2 (C-terminus assumed) [Compound 20] | > 10 µM | 0.91
11 | CC[C@H](C)[C@@H]1NC(=O)[C@H](CC(C)C)NC(=O)[C@H](C)NC(=O)[C@H](C)NC(=O)[C@H](Cc2c[nH]cn2)NC(=O)[C@H](CCC(=O)O)NC(=O)[C@@H](NC(=O)[C@H](C)NC(=O)[C@H](Cc2c[nH]c3ccccc23)NC(=O)[C@H](CC(C)C)NC(=O)[C@H](C)NC(=O)[C@@H]2CCCN2C(=O)[C@H](CC(=O)O)NC(=O)[C@H](C)N)CSCC(=O)O[C@@H]2C=C[C@@H](C2)OC(=O)CSC[C@@H](C(=O)N[C@@H](CCC(=O)O)C(=O)N[C@H](C(=O)N[C@@H](CCC(N)=O)C(N)=O)[C@@H](C)O)NC1=O [Compound 48] (H-ADPALWACEHAALICETQ-NH2; linker 8-15 via X1; N-terminus and C-terminus assumed) | > 10 µM | 0.93
12 | CC(C)C[C@@H]1NC(=O)[C@H](C)NC(=O)[C@H](C)NC(=O)[C@H](Cc2c[nH]c3ccccc23)NC(=O)[C@H](CCC(=O)O)NC(=O)[C@@H](NC(=O)[C@H](CCCNC(=N)N)NC(=O)[C@H](Cc2c[nH]cn2)NC(=O)[C@@H](NC(=O)[C@H](C)NC(=O)[C@@H]2CCCN2C(=O)[C@H](CC(=O)O)NC(=O)[C@H](C)N)[C@@H](C)O)CSCC(=O)Nc2cc(F)c(cc2F)NC(=O)CSC[C@@H](C(=O)N[C@@H](CCC(=O)O)C(=O)N[C@@H](CC(C)C)C(=O)N[C@H](C(N)=O)C(C)C)NC(=O)[C@H](Cc2c[nH]cn2)NC1=O [Compound 32] | 5.17 µM | 0.61
13 | CC(C)C[C@@H]1NC(=O)[C@H](C)NC(=O)[C@H](C)NC(=O)[C@H](Cc2c[nH]c3ccccc23)NC(=O)[C@H](CCC(=O)O)NC(=O)[C@@H](NC(=O)[C@H](CCCNC(=N)N)NC(=O)[C@H](Cc2c[nH]cn2)NC(=O)[C@@H](NC(=O)[C@H](C)NC(=O)[C@@H]2CCCN2C(=O)[C@H](CC(=O)O)NC(=O)[C@H](C)N)[C@@H](C)O)CSCC(=O)O[C@H]2CC[C@H](CC2)OC(=O)CSC[C@@H](C(=O)N[C@@H](CCC(=O)O)C(=O)N[C@@H](CC(C)C)C(=O)N[C@H](C(N)=O)C(C)C)NC(=O)[C@H](Cc2c[nH]cn2)NC1=O [Compound 36] | > 10 µM | 0.77
14 | CC[C@H](C)[C@@H]1NC(=O)[C@H](CC(C)C)NC(=O)[C@H](C)NC(=O)[C@H](C)NC(=O)[C@H](Cc2c[nH]cn2)NC(=O)[C@H](CCC(=O)O)NC(=O)[C@@H](NC(=O)[C@H](C)NC(=O)[C@H](Cc2c[nH]c3ccccc23)NC(=O)[C@H](CC(C)C)NC(=O)[C@H](C)NC(=O)[C@@H]2CCCN2C(=O)[C@H](CC(=O)O)NC(=O)[C@H](C)N)CSCC(=O)Nc2ccccc2NC(=O)CSC[C@@H](C(=O)N[C@@H](CCC(=O)O)C(=O)N[C@H](C(=O)N[C@@H](CCC(N)=O)C(N)=O)[C@@H](C)O)NC1=O [Compound 44] (H-ADPALWACEHAALICETQ-NH2; linker 8-15 via X3; N-terminus and C-terminus assumed) |  | 0.7
15 | CC[C@H](C)[C@@H]1NC(=O)[C@H](CC(C)C)NC(=O)[C@H](C)NC(=O)[C@H](C)NC(=O)[C@H](Cc2c[nH]cn2)NC(=O)[C@H](CCC(=O)O)NC(=O)[C@@H](NC(=O)[C@H](C)NC(=O)[C@H](Cc2c[nH]c3ccccc23)NC(=O)[C@H](CC(C)C)NC(=O)[C@H](C)NC(=O)[C@@H]2CCCN2C(=O)[C@H](CC(=O)O)NC(=O)[C@H](C)N)CSCC(=O)O[C@@H]2CCC[C@@H](C2)OC(=O)CSC[C@@H](C(=O)N[C@@H](CCC(=O)O)C(=O)N[C@H](C(=O)N[C@@H](CCC(N)=O)C(N)=O)[C@@H](C)O)NC1=O [Compound 46] (H-ADPALWACEHAALICETQ-NH2; linker 8-15 via X9; N-terminus and C-terminus assumed) |  | 0.94
16 | CC[C@H](C)[C@@H]1NC(=O)[C@H](CC(C)C)NC(=O)[C@H](C)NC(=O)[C@H](C)NC(=O)[C@H](Cc2c[nH]cn2)NC(=O)[C@H](CCC(=O)O)NC(=O)[C@@H](NC(=O)[C@H](C)NC(=O)[C@H](Cc2c[nH]c3ccccc23)NC(=O)[C@H](CC(C)C)NC(=O)[C@H](C)NC(=O)[C@@H]2CCCN2C(=O)[C@H](CC(=O)O)NC(=O)[C@H](C)N)CSCC(=O)Nc2cc(OC)c(cc2OC)NC(=O)CSC[C@@H](C(=O)N[C@@H](CCC(=O)O)C(=O)N[C@H](C(=O)N[C@@H](CCC(N)=O)C(N)=O)[C@@H](C)O)NC1=O [Compound 43] (H-ADPALWACEHAALICETQ-NH2; linker 8-15 via X8; N-terminus and C-terminus assumed) |  | 0.75

Source: US12398178B2, “Collections of peptides, peptide agents, and methods of use thereof” (Parabilis Medicines, Inc., priority 2018, dated 2025)
